Values after ≈ are worked out from the molar mass of the structure shown.

The assay is described as follows: Cytotoxicity against mouse 9PS cells. The class given is functional. The following applies: read-out: ED50 (the source's name).
`COc1c(/C=C/C(C)(C)O)c2c(c3oc(C)cc(=O)c13)C=CC(C)(C)O2`: the EC50 is 0.3 mg/L (≈ 0.842 µM).

Consider `Cc1cc(=O)c2c(O)c3c(c(CC(O)C(C)(C)O)c2o1)OC(C)(C)C=C3` (stereo not drawn) [SPATHELIABISCHROMEN], for which the EC50 came out at 3 mg/L (≈ 8.32 µM).

As to `Cc1cc(=O)c2c(O)c3c(c(C(O)C(O)C(C)(C)O)c2o1)OC(C)(C)C=C3` (stereo not drawn), the EC50 is 0.5 mg/L (≈ 1.33 µM).

The values are drawn from ChEMBL document CHEMBL1150706, “Novel chromones from Spathelia sorbifolia” (1987).
